According to patent US9156801B2, “2-substituted oleanolic acid derivative, method preparing for same, and application thereof” (HANGZHOU BENSHENG PHARMACEUTICAL CO., LTD., priority 2011, dated 2015):
≈ marks a conversion by molar mass, not a printed value.

Assays:
NB4 cell line = assay: leukemia cell growth inhibition, MTT; assay type: cell-based; details: Homo sapiens, NB-4; for inhibition at 16 µg/mL: NB4, 16 μg/mL compound, 72 h, read-out: IR (cell proliferation inhibition rate); for IC50: NB4, 72 h
Text: (§1) Leukemia cell lines: leukemia cell lines: K562/adr (drug-resistant, chronic myeloid leukemia, CML), NB4 (acute promyelocytic leukemia, AML), Kasumi-1 (acute myeloid leukemia M2 type, AML-M2), Jurkat (acute lymphoblastic leukemia, ALL), all of which are donated by Cancer Research Institute of Zhejiang University, China; and H9 (acute lymphoblastic leukemia, ALL), which is purchased from China Center for Type Culture Collection (CCTCC).
(§2) Obtaining 6000 well-growing leukemia cells and inoculating them into wells of a 96-well cell culture plate. The culture medium is the 1640 cell culture medium containing 10% fetal bovine serum. After adding the 2-substituted oleanolic acid derivatives of different concentrations and mixing uniformly, placing the plate in a carbon dioxide cell incubator (5% CO2) at 37° C. and incubated for 72 hours. Then the relative number of viable cells is determined by MTT method. In this experiment, cell proliferation inhibition rate in control group (not treated with any compound) is set as 0%.

Jurkat cell line = assay: leukemia cell growth inhibition, MTT; assay type: cell-based; details: Homo sapiens, 72 h; for inhibition at 16 µg/mL: 16 μg/mL compound, read-out: IR (cell proliferation inhibition rate)
Text: as §1, §2

K562/adr cell line = assay: leukemia cell growth inhibition, MTT; assay type: cell-based; details: Homo sapiens, 72 h; for IC50: K562/Adr; for inhibition at 16 µg/mL: K562/adr, 16 μg/mL compound, read-out: IR (cell proliferation inhibition rate)
Text: as §1, §2

Kasumi-1 cell line = assay: leukemia cell growth inhibition, MTT; assay type: cell-based; details: Homo sapiens; for inhibition at 16 µg/mL: Kasumi-1, 16 μg/mL compound, 72 h, read-out: IR (cell proliferation inhibition rate); for IC50: Kasumi-1, 72 h
Text: as §1, §2

H9 cell line = assay: leukemia cell growth inhibition, MTT; assay type: cell-based; details: Homo sapiens; for IC50: H9, 72 h; for inhibition at 16 µg/mL: H9, 16 μg/mL compound, 72 h, read-out: IR (cell proliferation inhibition rate)
Text: as §1, §2

RPMI8226 cell line = assay: multiple myeloma cell growth inhibition, MTT; assay type: cell-based; details: Homo sapiens, RPMI-8226; for inhibition at 16 µg/mL: RPMI8226, 16 μg/mL compound, 72 h, read-out: IR (cell proliferation inhibition rate); for IC50: RPMI8226, 72 h
Procedure: Multiple myeloma cell lines: RPMI8226 (multiple myeloma), purchased from Fuxiang Bio-tech Co. Ltd., Shanghai, China.
Obtaining 6000 well-growing cells as above and inoculating them into wells of a 96-well cell culture plate. The culture medium is the 1640 cell culture medium containing 10% fetal bovine serum. After adding the 2-substituted oleanolic acid derivatives of different concentrations and mixing uniformly, placing the plate in a carbon dioxide cell incubator (5% CO2) at 37° C. and incubated for 72 hours. Then the relative number of viable cells is determined by MTT method. In this experiment, cell proliferation inhibition rate in control group (not treated with any compound) is set as 0%.

Hep G2 cell line = assay: solid tumor cell growth inhibition, MTT; assay type: cell-based, human; details: Homo sapiens; for inhibition at 16 µg/mL: HepG2, 72 h, Hep G2, 16 μg/mL compound, 72 h, read-out: IR (cell proliferation inhibition rate); for IC50: HepG2, Hep G2, 72 h
Procedure: (§3) Hep-2 (laryngeal carcinoma), A549 (human lung cancer), CaES-17 (esophageal cancer cell), PC-3 (prostate cancer), CNE (nasopharyngeal carcinoma cell), and SK-OV-3 (ovarian cancer cell), all of which are purchased from China Center For Type Culture Collection; RKO (human colon adenocarcinoma cell), MGC 803 (human gastric cancer cell), MG63 (osteosarcoma) and U87 MG (malignant glioma cell), all of which are purchased from Fuxiang Bio-tech Co. Ltd., Shanghai, China; PANC-1 (pancreatic cancer), Hep G2 (human liver cancer cell), Becap37 (human breast cancer cell), and Hela (human cervical cancer cell), all of which are donated by Cancer Research Institute of Zhejiang University, China.
(§4) Obtaining 4000 well-growing human solid tumor cells and inoculating them into wells of a 96-well cell culture plate. The culture medium is DMEM High Glucose cell culture medium containing 10% fetal bovine serum. The plate is placed in a carbon dioxide cell incubator (5% CO2) at 37° C. for 24 hours. After adding the 2-substituted oleanolic acid derivatives of different concentrations and mixing uniformly, the plate is placed in a carbon dioxide cell incubator (5% CO2) at 37° C. and incubated for 72 hours. Then the relative number of the living cells is determined by MTT method. In this experiment, the cell proliferation inhibition rate in control group (not treated with any compound) is set as 0%.

RKO cell line = assay: solid tumor cell growth inhibition, MTT; assay type: cell-based; details: Homo sapiens, 72 h; for inhibition at 16 µg/mL: 16 μg/mL compound, read-out: IR (cell proliferation inhibition rate)
Procedure: as §3, §4

CaES-17 cell line = assay: solid tumor cell growth inhibition, MTT; assay type: cell-based; details: Homo sapiens, CaEs17; for inhibition at 16 µg/mL: CaES-17, 16 μg/mL compound, 72 h, read-out: IR (cell proliferation inhibition rate); for IC50: CaES-17, 72 h
Procedure: as §3, §4

A549 cell line = assay: solid tumor cell growth inhibition, MTT; assay type: cell-based; details: Homo sapiens; for IC50: A549, 72 h; for inhibition at 16 µg/mL: A549, 16 μg/mL compound, 72 h, read-out: IR (cell proliferation inhibition rate)
Procedure: as §3, §4

Becap37 cell line = assay: solid tumor cell growth inhibition, MTT; assay type: cell-based; details: Homo sapiens; for inhibition at 16 µg/mL: Becap37, 16 μg/mL compound, 72 h, read-out: IR (cell proliferation inhibition rate); for IC50: Becap37, 72 h
Procedure: as §3, §4

SK-OV-3 cell line = assay: solid tumor cell growth inhibition, MTT; assay type: cell-based; details: Homo sapiens; for IC50: SK-OV-3, 72 h; for inhibition at 16 µg/mL: SK-OV-3, 16 μg/mL compound, 72 h, read-out: IR (cell proliferation inhibition rate)
Procedure: as §3, §4

MG-63 cell line = assay: solid tumor cell growth inhibition, MTT; assay type: cell-based; details: Homo sapiens; for IC50: MG-63, 72 h; for inhibition at 16 µg/mL: MG-63, 16 μg/mL compound, 72 h, read-out: IR (cell proliferation inhibition rate)
Procedure: as §3, §4

CNE cell line = assay: solid tumor cell growth inhibition, MTT; assay type: cell-based; details: Homo sapiens, 72 h; for inhibition at 16 µg/mL: 16 μg/mL compound, read-out: IR (cell proliferation inhibition rate)
Procedure: as §3, §4

Hela cell line = assay: solid tumor cell growth inhibition, MTT; assay type: cell-based; details: Homo sapiens, 72 h; for IC50: HeLa; for inhibition at 16 µg/mL: Hela, 16 μg/mL compound, read-out: IR (cell proliferation inhibition rate)
Procedure: as §3, §4

MGC 803 cell line = assay: solid tumor cell growth inhibition, MTT; assay type: cell-based; details: Homo sapiens; for inhibition at 16 µg/mL: MGC 803, 16 μg/mL compound, 72 h, read-out: IR (cell proliferation inhibition rate); for IC50: MGC 803, 72 h
Procedure: as §3, §4

PC-3 cell line = assay: solid tumor cell growth inhibition, MTT; assay type: cell-based; details: Homo sapiens; for IC50: PC-3, 72 h; for inhibition at 16 µg/mL: PC-3, 16 μg/mL compound, 72 h, read-out: IR (cell proliferation inhibition rate)
Procedure: as §3, §4

Hep-2 cell line = assay: solid tumor cell growth inhibition, MTT; assay type: cell-based; details: Homo sapiens; for IC50: HEp-2, 72 h; for inhibition at 16 µg/mL: Hep-2, 16 μg/mL compound, 72 h, read-out: IR (cell proliferation inhibition rate)
Procedure: as §3, §4

PANC-1 cell line = assay: solid tumor cell growth inhibition, MTT; assay type: cell-based; details: Homo sapiens; for IC50: PANC-1, 72 h; for inhibition at 16 µg/mL: PANC-1, 16 μg/mL compound, 72 h, read-out: IR (cell proliferation inhibition rate)
Procedure: as §3, §4

U87 MG cell line = assay: solid tumor cell growth inhibition, MTT; assay type: cell-based; details: Homo sapiens, U-87 MG, 72 h; for inhibition at 16 µg/mL: 16 μg/mL compound, read-out: IR (cell proliferation inhibition rate)
Procedure: as §3, §4

IC50 (NB4 cell line)	IC50 (Jurkat cell line)	IC50 (K562/adr cell line)	IC50 (Kasumi-1 cell line)	IC50 (H9 cell line)	IC50 (RPMI8226 cell line)	IC50 (Hep G2 cell line)	IC50 (RKO cell line)	IC50 (CaES-17 cell line)	IC50 (A549 cell line)	Structure (SMILES)	inhibition at 16 µg/mL (NB4 cell line)	inhibition at 16 µg/mL (Jurkat cell line)	inhibition at 16 µg/mL (K562/adr cell line)	inhibition at 16 µg/mL (Kasumi-1 cell line)	inhibition at 16 µg/mL (H9 cell line)	inhibition at 16 µg/mL (RPMI8226 cell line)	inhibition at 16 µg/mL (Hep G2 cell line)	inhibition at 16 µg/mL (RKO cell line)	inhibition at 16 µg/mL (CaES-17 cell line)	inhibition at 16 µg/mL (A549 cell line)	also measured
9.74 µg/mL (≈ 15.6 µM)	> 16 µg/mL	8.87 µg/mL (≈ 14.2 µM)	16 µg/mL (≈ 25.6 µM)	12.7 µg/mL (≈ 20.4 µM)	7.18 µg/mL (≈ 11.5 µM)	> 16 µg/mL	> 16 µg/mL	> 16 µg/mL	> 16 µg/mL	COC(=O)[C@]12CCC(C)(C)C[C@H]1C1=CC[C@@H]3[C@@]4(C)CC(C(=O)NCCN5CCOCC5)C(=O)C(C)(C)[C@@H]4CC[C@@]3(C)[C@]1(C)CC2 (some centres unmarked) [BS-OA-059]	86.7%	23.8%	80.5%	48.7%	67.7%	96.6%	0.6%	1.8%	34%	11.8%	inhibition at 16 µg/mL (Becap37 cell line): 4.7%; IC50 (Becap37 cell line): > 16 µg/mL; IC50 (SK-OV-3 cell line): > 16 µg/mL; inhibition at 16 µg/mL (SK-OV-3 cell line): 35.2%; IC50 (MG-63 cell line): > 16 µg/mL; inhibition at 16 µg/mL (MG-63 cell line): 27%; inhibition at 16 µg/mL (CNE cell line): 20.6%; IC50 (CNE cell line): > 16 µg/mL; IC50 (Hela cell line): 16 µg/mL (≈ 25.6 µM); inhibition at 16 µg/mL (Hela cell line): 51.8%; inhibition at 16 µg/mL (MGC 803 cell line): -7.4%; IC50 (MGC 803 cell line): > 16 µg/mL; IC50 (PC-3 cell line): > 16 µg/mL; inhibition at 16 µg/mL (PC-3 cell line): 34.1%; IC50 (Hep-2 cell line): > 16 µg/mL; inhibition at 16 µg/mL (Hep-2 cell line): 0%; IC50 (PANC-1 cell line): > 16 µg/mL; inhibition at 16 µg/mL (PANC-1 cell line): 10.4%; inhibition at 16 µg/mL (U87 MG cell line): 30.6%; IC50 (U87 MG cell line): > 16 µg/mL
> 16 µg/mL	> 16 µg/mL	> 16 µg/mL	> 16 µg/mL	> 16 µg/mL	> 16 µg/mL	> 16 µg/mL	> 16 µg/mL	> 16 µg/mL	> 16 µg/mL	COC(=O)[C@]12CCC(C)(C)CC1C1=CCC3[C@@]4(C)CC(C(=O)NC5CC5)C(=O)C(C)(C)C4CC[C@@]3(C)[C@]1(C)CC2 (some centres unmarked) [BS-OA-034]	22.3%	-19.6%	25.3%	22.6%	22.1%	15.5%	8.9%	-41%	-6.7%	5.3%	inhibition at 16 µg/mL (Becap37 cell line): -6.7%; IC50 (Becap37 cell line): > 16 µg/mL; IC50 (SK-OV-3 cell line): > 16 µg/mL; inhibition at 16 µg/mL (SK-OV-3 cell line): 21.3%; IC50 (MG-63 cell line): > 16 µg/mL; inhibition at 16 µg/mL (MG-63 cell line): -5.4%; inhibition at 16 µg/mL (CNE cell line): 16.7%; IC50 (CNE cell line): > 16 µg/mL; IC50 (Hela cell line): > 16 µg/mL; inhibition at 16 µg/mL (Hela cell line): 0.6%; inhibition at 16 µg/mL (MGC 803 cell line): -3.2%; IC50 (MGC 803 cell line): > 16 µg/mL; IC50 (PC-3 cell line): > 16 µg/mL; inhibition at 16 µg/mL (PC-3 cell line): 19%; IC50 (Hep-2 cell line): > 16 µg/mL; inhibition at 16 µg/mL (Hep-2 cell line): 5.4%; IC50 (PANC-1 cell line): > 16 µg/mL; inhibition at 16 µg/mL (PANC-1 cell line): -9.9%; inhibition at 16 µg/mL (U87 MG cell line): 18.2%; IC50 (U87 MG cell line): > 16 µg/mL
